Biological target: T1, Human DGAT1 (Homo sapiens, UniProt O75907)
T1 construct: made in house; host or cells: Pichia pastoris (printed 'Pichia pastris'), vector pPICZA; membrane fraction
T1 sequence (O75907 1-488): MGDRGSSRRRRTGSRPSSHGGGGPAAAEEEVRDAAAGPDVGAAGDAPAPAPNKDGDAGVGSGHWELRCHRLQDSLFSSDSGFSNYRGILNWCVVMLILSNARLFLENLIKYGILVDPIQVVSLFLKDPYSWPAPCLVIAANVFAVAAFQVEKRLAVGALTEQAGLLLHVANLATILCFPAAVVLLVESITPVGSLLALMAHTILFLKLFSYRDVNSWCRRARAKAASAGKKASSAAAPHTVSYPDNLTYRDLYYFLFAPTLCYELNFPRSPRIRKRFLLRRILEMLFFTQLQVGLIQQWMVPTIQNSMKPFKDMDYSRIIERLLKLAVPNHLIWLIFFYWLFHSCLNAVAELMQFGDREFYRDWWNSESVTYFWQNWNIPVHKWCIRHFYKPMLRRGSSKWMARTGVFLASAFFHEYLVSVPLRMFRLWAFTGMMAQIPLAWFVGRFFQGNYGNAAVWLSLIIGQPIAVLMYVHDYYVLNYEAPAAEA
Assay: DGAT1 Inhibitory Activity Test
Format: biochemical
Details: DGAT1-expressed yeast membrane fraction, [14C]-oleoyl-CoA, room temperature 30 minutes
Protocol: Cloning of Human DGAT1 Gene and Expression in Yeast
Human DGAT1 genes were amplified by PCR using primers described below from human cDNA library (Clontech).
The amplified human DGAT1 genes were introduced into a yeast expression vector pPICZA (Invitrogen). The resultant expression plasmid was introduced into an yeast (Pichia pastris) by electroporation to produce a recombinant yeast. The recombination yeast was cultured in the presence of 0.5% methanol for 72 hours, and the cells were crushed using glass beads in 10 mM Tris pH 7.5, 250 mM sucrose and 1 mM EDTA, followed by adjusting the membrane fraction by centrifugation to use the adjusted membrane fraction as an enzyme source.
To the reaction liquid having the following composition: 100 mM Tris pH 7.5, 100 mM MgCl2, 100 mM sucrose, 40 μM dioelin, 15 μM [^14C]-oleoyl-CoA, 0.25 μg of test substance, DGAT1-expressed yeast membrane fraction, was added, and the mixture having a volume of 100 μl was incubated at room temperature for 30 minutes. To the reaction liquid, 100 μl of 2-propanol/heptan/H2O (80:20:2) was added, the mixture was stirred well, followed by adding 200 μl of heptane and further stirring the mixture. After centrifugation, the heptane layer was collected, ethanol/0.1N NaOH/H2O (50:5:45) was added, the mixture was thus stirred, followed by re-centrifuging the mixture and collecting the heptane layer. After exsiccation of the resultant heptane layer, 100 μl of Microscint 0 (PerkinElmer) was added, and the radioactivity was measured with a liquid scintillation counter. The inhibitory activity was calculated from the following formula:
Inhibition rate=100−(radioactivity in case of addition of test compound−background)/(radioactivity in case of addition of no test compound−background)×100 wherein the background means the radioactivity in case of addition of no membrane fraction.

| SMILES | IC50 [nM] |
| --- | --- |
| CN1C(=O)C(NC(=O)C(C)(C)NC(=O)c2ccccc2)N=C(Cc2ccc(OC(F)(F)F)cc2)c2cc(F)ccc21 (single isomer, unassigned) [Example 2 Enantiomer A, N-[2-({7-fluoro-1-methyl-2-oxo-5-[4-(trifluoromethoxy)benzyl]-2,3-dihydro-1H-1,4-benzodiazepin 3-yl}amino)-1,1-dimethyl-2-oxoethyl]benzamide] | 569 |
| CN1C(=O)C(NC(=O)C(C)(C)NC(=O)c2ccc(F)cc2)N=C(Cc2ccc(OC(F)(F)F)cc2)c2cc(F)ccc21 (single isomer, unassigned) [Example 1 Enantiomer A, 4-fluoro-N-[2-({7-fluoro-1-methyl-2-oxo-5-[4-(trifluoromethoxy)benzyl]-2,3-dihydro-1H-1,4-benzodiazepin-3-yl}amino)-1,1-dimethyl-2-oxoethyl]benzamide] | 483 |
| CN1C(=O)C(NC(=O)C(C)(C)NC(=O)c2ccccc2)N=C(Cc2ccc(OC(F)(F)F)cc2)c2cc(F)ccc21 (single isomer, unassigned) [Example 2 Enantiomer B, N-[2-({7-fluoro-1-methyl-2-oxo-5-[4-(trifluoromethoxy)benzyl]-2,3-dihydro-1H-1,4-benzodiazepin 3-yl}amino)-1,1-dimethyl-2-oxoethyl]benzamide] | 164 |
| CN1C(=O)C(NC(=O)C(C)(C)NC(=O)c2ccccc2)N=C(Cc2ccc(OC(F)(F)F)cc2)c2ccccc21 (single isomer, unassigned) [Example 4 Enantiomer B, N-[1,1-dimethyl-2-({1-methyl-2-oxo-5-[4-(trifluoromethoxy)benzyl]-2,3-dihydro-1H-1,4-benzodiazepin-3-yl}amino)-2-oxoethyl]benzamide] | 127 |
| CN1C(=O)C(NC(=O)C(C)(C)NC(=O)c2ccccc2)N=C(Cc2ccc(OC(F)(F)F)cc2)c2ccccc21 (single isomer, unassigned) [Example 4 Enantiomer A, N-[1,1-dimethyl-2-({1-methyl-2-oxo-5-[4-(trifluoromethoxy)benzyl]-2,3-dihydro-1H-1,4-benzodiazepin-3-yl}amino)-2-oxoethyl]benzamide] | 308 |
| CN1C(=O)C(NC(=O)C(C)(C)NC(=O)c2ccc(F)cc2)N=C(Cc2ccc(OC(F)(F)F)cc2)c2ccccc21 (single isomer, unassigned) [Example 3 Enantiomer B, N-[1,1-dimethyl-2-({1-methyl-2-oxo-5-[4-(trifluoromethoxy)benzyl]-2,3-dihydro-1H-1,4-benzodiazepin-3-yl}amino)-2-oxoethyl]-4-fluorobenzamide] | 125 |
| CN1C(=O)C(NC(=O)C(C)(C)NC(=O)c2ccc(F)cc2)N=C(Cc2ccc(OC(F)(F)F)cc2)c2cc(F)ccc21 (single isomer, unassigned) [Example 1 Enantiomer B, 4-fluoro-N-[2-({7-fluoro-1-methyl-2-oxo-5-[4-(trifluoromethoxy)benzyl]-2,3-dihydro-1H-1,4-benzodiazepin-3-yl}amino)-1,1-dimethyl-2-oxoethyl]benzamide] | 133 |
| CN1C(=O)C(NC(=O)C(C)(C)NC(=O)c2ccc(F)cc2)N=C(Cc2ccc(OC(F)(F)F)cc2)c2ccccc21 (single isomer, unassigned) [Example 3 Enantiomer A, N-[1,1-dimethyl-2-({1-methyl-2-oxo-5-[4-(trifluoromethoxy)benzyl]-2,3-dihydro-1H-1,4-benzodiazepin-3-yl}amino)-2-oxoethyl]-4-fluorobenzamide] | 181 |

Source: patent publication US20120015938A1, “1,4-BENZODIAZEPIN-2-ON DERIVATIVES” (MSD K.K., priority 2009, published 2012)
